Reference: patent publication US4336389A, “2-Substituted-4-aryl-5-thiazolecarboxylic acids and their derivatives as safening agents” (Monsanto Company, priority 1978, dated 1982)

Assays:
Format in all cases: in vivo
rice [1] = test: Inhibition of rice, safening agent and butachlor applied to soil surface, flooded pots (Example 18, Table IV); conditions: ~21 days, mean of two replicates
Experimental: (§1) 5.08 cm. of a good grade of top soil is placed in a 7.62 cm. deep plastic pot. A predetermined number of barnyard grass seeds are applied to the soil surface. A measured quantity of the safening agent and butachlor dispersed or dissolved in a suitable carrier is applied to the soil surface. Pre-soaked rice is seeded into the pots that were previously flooded with water. The water level is lowered below the soil surface for one week. The pots are flooded just above the soil surface for the duration of the test. The plants are observed at the end of approximately 21 days and the results in terms of percent inhibition recorded. For each test, pots are prepared containing soil treated only with butachlor. For each test, pots are prepared containing soil treated only with the safening agent. Pots are also prepared with untreated soil.

rice [2] = test: Safening effect against butachlor injury to pre-soaked rice, soil surface application, flooded pots (Example 16, Table II); design: key: herbicide injury alone + safener injury alone (max 100) minus combined injury; conditions: safening agent 0.56 kg/h, ~21 days, mean of two replicates
Experimental: (§2) A good grade of top soil is placed in a container and compacted to a depth of approximately 1.27 cm. from the top of said container. A predetermined number of rice seeds to be tested are placed on top of the soil. A quantity of soil sufficient to substantially fill the container is measured and placed in a second container. A measured quantity of the safening agent dispersed or dissolved in a suitable carrier is applied to the soil in the second container. A measured quantity of butachlor dispersed or dissolved in a suitable carrier is then sprayed on the soil already treated with the safening agent. The soil containing the safening agent and herbicide is thoroughly mixed. This mixing is sometimes referred to as incorporation of the herbicide and safening agent into the soil. The mixing or incorporation provides a substantially uniform distribution of the safening agent and herbicide throughout the soil. The seeds are covered with the soil containing the safening agent and herbicide and the pans are leveled. The pans are then placed on a sand bench in the greenhouse and watered from below as needed. The plants are observed at the end of approximately 21 days and the results in terms of percent inhibition of each seed lot are recorded. For each test series a pan of plants is also prepared containing no herbicide and no safening agent as a control. Additionally, for each test, a pan of plants is prepared with soil covering the seed containing no herbicide and only the measured amount of safening agent being incorporated into the soil covering the seeds to ascertain any herbicidal effect of the safening agent alone. For each series of tests the herbicidal effect of the herbicide is observed from pans of plants treated with the same quantity of herbicide alone. The "safening effect" is determined by adding the hericidal effect of the herbicide when applied alone to the herbicidal effect of the safening agent when applied alone (in no instance, however, will this sum be greater than 100) and substracting from that the herbicidal effect obtained when the herbicide and safening agent are incorporated into the soil as discussed above.
A good grade of top soil is placed in a plastic pot. A measured quantity of the safening agent dispersed or dissolved in a suitable carrier is sprayed on the soil surface. A measured quantity of butachlor herbicide dissolved in a solvent is sprayed on the soil surface. Presoaked rice is seeded into the pots that were previously flooded with water and the water level lowered below the soil surface for one week. The pots are flooded at least up to the soil surface for the duration of the test. The plants are observed at the end of approximately 21 days and the results in terms of the percent inhibition of rice is recorded. As in Example 15, for each test pots are prepared containing soil treated only with butachlor. For each test, pots are also prepared containing soil treated only with the safening agent. Pots are also prepared in which the soil is not treated with either the herbicide or the safening agent. The safening effect is determined in accordance with Example 15.
Table II summarizes the results obtained when the compounds of the invention were tested in accordance with the procedure of Example 16.

rice [3] = test: Inhibition of rice by butachlor and safening agent sprayed on soil surface, flooded pots (Example 17, Table III); conditions: ~21 days, mean of two replicates
Experimental: as §1, with “agent” for “agent and butachlor”, “is sprayed on the soil surface. A measured quantity of butachlor herbicide dissolved in a solvent is sprayed on” for “is applied to”, “one week to allow barnyard grass to emerge.” for “one week.”, “prepared containing” for “prepared with”

Barnyard Grass [4] = test: Inhibition of barnyard grass by butachlor and safening agent sprayed on soil surface, flooded pots (Example 17, Table III); conditions: ~21 days, mean of two replicates
Experimental: as §1, with “agent” for “agent and butachlor”, “is sprayed on the soil surface. A measured quantity of butachlor herbicide dissolved in a solvent is sprayed on” for “is applied to”, “one week to allow barnyard grass to emerge.” for “one week.”, “prepared containing” for “prepared with”

rice [5] = test: Safening effect against butachlor injury to rice, safening agent and herbicide incorporated in soil (Example 15, Table I); design: key: herbicide-alone + safener-alone effect (max 100) minus combined effect; conditions: safening agent 8.96 kg/h; butachlor 6.72 kg/h; ~21 days
Experimental: as §2
Table I summarizes the results obtained when the compounds of the invention were tested in accordance with the procedure of Example 15.

Barnyard Grass [6] = test: Inhibition of barnyard grass, safening agent and butachlor applied to soil surface, flooded pots (Example 18, Table IV); conditions: ~21 days, mean of two replicates
Experimental: as §1

Crabgrass = test: Percent inhibition of crabgrass, mixture incorporated in soil cover layer (Example 19, Table V); conditions: ~21 days
From the text: (§3) 5.08 cm. of a good grade of top soil is placed in a 7.62 cm. deep plastic pot. A predetermined number of weed seeds and rice seeds are applied to the soil surface. Butachlor and ethyl 2-chloro-4-phenyl-5-thiazolecarboxylate are applied to a soil cover layer as a mixture and incorporated by shaking the treated soil cover layer in a plastic bag. The cover layers were then placed on the pre-seeded pots. The plants are observed at the end of approximately 21 days and the results in terms of percent inhibition recorded. For each test, pots are prepared containing soil treated only with butachlor. For each test, pots are prepared containing soil treated only with the safening agent. Pots are also prepared with untreated soil.

Panicum = test: Percent inhibition of panicum, mixture incorporated in soil cover layer (Example 19, Table V); conditions: ~21 days
From the text: as §3

Foxtail = test: Percent inhibition of foxtail, mixture incorporated in soil cover layer (Example 19, Table V); conditions: ~21 days
From the text: as §3

Barnyard Grass [7] = test: Percent inhibition of barnyard grass, mixture incorporated in soil cover layer (Example 19, Table V); conditions: ~21 days
From the text: as §3

rice [8] = test: Percent inhibition of rice, mixture incorporated in soil cover layer (Example 19, Table V); conditions: ~21 days
From the text: as §3

[9] = safening agent 0.07 kg/h + butachlor 0.07 kg/h
[10] = safening agent 0.07 kg/h + butachlor 0.28 kg/h
[11] = safening agent 0.07 kg/h + butachlor 1.12 kg/h
[12] = safening agent 0.28 kg/h + butachlor 0.07 kg/h
[13] = safening agent 0.28 kg/h + butachlor 0.28 kg/h
[14] = safening agent 0.28 kg/h + butachlor 1.12 kg/h
[15] = safening agent 1.12 kg/h + butachlor 0.07 kg/h
[16] = safening agent 1.12 kg/h + butachlor 0.28 kg/h
[17] = safening agent 1.12 kg/h + butachlor 1.12 kg/h

CCOC(=O)c1sc(Cl)nc1-c1ccc(Cl)cc1 [Example 4, Ethyl 2-Chloro-4-p-Chlorophenyl-5-Thiazolecarboxylate]
32: Safening Effect (rice [2]; butachlor 1.12 kg/h)
100%: Inhibition, Barnyard Grass (Barnyard Grass [4]; [10]) | Inhibition, Barnyard Grass (Barnyard Grass [4]; [11]) | Inhibition, Barnyard Grass (Barnyard Grass [4]; [14]) | Inhibition, Barnyard Grass (Barnyard Grass [4]; [17]) | % Inhibition, Barnyard Grass (Barnyard Grass [6]; [10]) | % Inhibition, Barnyard Grass (Barnyard Grass [6]; [11]) | % Inhibition, Barnyard Grass (Barnyard Grass [6]; [13]) | % Inhibition, Barnyard Grass (Barnyard Grass [6]; [14]) | % Inhibition, Barnyard Grass (Barnyard Grass [6]; [16]) | % Inhibition, Barnyard Grass (Barnyard Grass [6]; [17])
28%: Inhibition, Rice (rice [3]; [17])
85: Safening Effect (rice [5])
63%: % Inhibition, Rice (rice [1]; [10])
40%: % Inhibition, Rice (rice [1]; [14]) | Inhibition, Rice (rice [3]; [14])
70: Safening Effect (rice [2]; butachlor 0.28 kg/h)
99%: Inhibition, Barnyard Grass (Barnyard Grass [4]; [9]) | Inhibition, Barnyard Grass (Barnyard Grass [4]; [12]) | Inhibition, Barnyard Grass (Barnyard Grass [4]; [13]) | Inhibition, Barnyard Grass (Barnyard Grass [4]; [15]) | Inhibition, Barnyard Grass (Barnyard Grass [4]; [16])
5%: % Inhibition, Rice (rice [1]; [9])
0%: % Inhibition, Rice (rice [1]; [12]) | % Inhibition, Rice (rice [1]; [15]) | % Inhibition, Rice (rice [1]; safening agent alone 0.07 kg/h) | % Inhibition, Rice (rice [1]; safening agent alone 0.28 kg/h) | % Inhibition, Rice (rice [1]; safening agent alone 1.12 kg/h) | Inhibition, Rice (rice [3]; [9]) | Inhibition, Rice (rice [3]; [10]) | Inhibition, Rice (rice [3]; [12]) | Inhibition, Rice (rice [3]; [13]) | Inhibition, Rice (rice [3]; [15]) | Inhibition, Rice (rice [3]; [16]) | Inhibition, Rice (rice [3]; safening agent alone 0.07 kg/h) | Inhibition, Rice (rice [3]; safening agent alone 0.28 kg/h) | Inhibition, Rice (rice [3]; safening agent alone 1.12 kg/h) | Inhibition, Barnyard Grass (Barnyard Grass [4]; safening agent alone 0.07 kg/h) | Inhibition, Barnyard Grass (Barnyard Grass [4]; safening agent alone 0.28 kg/h) | Inhibition, Barnyard Grass (Barnyard Grass [4]; safening agent alone 1.12 kg/h) | % Inhibition, Barnyard Grass (Barnyard Grass [6]; safening agent alone 0.07 kg/h) | % Inhibition, Barnyard Grass (Barnyard Grass [6]; safening agent alone 0.28 kg/h) | % Inhibition, Barnyard Grass (Barnyard Grass [6]; safening agent alone 1.12 kg/h)
88%: % Inhibition, Rice (rice [1]; [11]) | % Inhibition, Rice (rice [1]; [17])
78%: Inhibition, Rice (rice [3]; [11])
30%: % Inhibition, Rice (rice [1]; [13]) | % Inhibition, Rice (rice [1]; [16])
30: Safening Effect (rice [2]; butachlor 0.07 kg/h)
85%: % Inhibition, Barnyard Grass (Barnyard Grass [6]; [12]) | % Inhibition, Barnyard Grass (Barnyard Grass [6]; [15])
90%: % Inhibition, Barnyard Grass (Barnyard Grass [6]; [9])

CCCCOCN(C(=O)CCl)c1c(CC)cccc1CC [butachlor, 2-chloro-2',6'-diethyl-N-(butoxymethyl)acetanilide, reference compound]
74%: Inhibition, Rice (rice [3]; butachlor alone 0.28 kg/h)
99%: Inhibition, Barnyard Grass (Barnyard Grass [4]; butachlor alone 0.07 kg/h) | Percent Inhibition, Panicum (Panicum; butachlor alone 2.24 kg/h)
93%: Percent Inhibition, Rice (rice [8]; butachlor alone 8.96 kg/h)
64%: % Inhibition, Rice (rice [1]; butachlor alone 0.07 kg/h)
100%: Percent Inhibition, Crabgrass (Crabgrass; butachlor alone 2.24 kg/h) | Percent Inhibition, Crabgrass (Crabgrass; butachlor alone 4.48 kg/h) | Percent Inhibition, Crabgrass (Crabgrass; butachlor alone 8.96 kg/h) | % Inhibition, Rice (rice [1]; butachlor alone 1.12 kg/h) | Inhibition, Barnyard Grass (Barnyard Grass [4]; butachlor alone 0.28 kg/h) | Inhibition, Barnyard Grass (Barnyard Grass [4]; butachlor alone 1.12 kg/h) | Percent Inhibition, Panicum (Panicum; butachlor alone 4.48 kg/h) | Percent Inhibition, Panicum (Panicum; butachlor alone 8.96 kg/h) | Percent Inhibition, Foxtail (Foxtail; butachlor alone 2.24 kg/h) | Percent Inhibition, Foxtail (Foxtail; butachlor alone 4.48 kg/h) | Percent Inhibition, Foxtail (Foxtail; butachlor alone 8.96 kg/h) | % Inhibition, Barnyard Grass (Barnyard Grass [6]; butachlor alone 0.07 kg/h) | % Inhibition, Barnyard Grass (Barnyard Grass [6]; butachlor alone 0.28 kg/h) | % Inhibition, Barnyard Grass (Barnyard Grass [6]; butachlor alone 1.12 kg/h) | Percent Inhibition, Barnyard Grass (Barnyard Grass [7]; butachlor alone 2.24 kg/h) | Percent Inhibition, Barnyard Grass (Barnyard Grass [7]; butachlor alone 4.48 kg/h) | Percent Inhibition, Barnyard Grass (Barnyard Grass [7]; butachlor alone 8.96 kg/h)
98%: Inhibition, Rice (rice [3]; butachlor alone 1.12 kg/h)
78%: % Inhibition, Rice (rice [1]; butachlor alone 0.28 kg/h) | Percent Inhibition, Rice (rice [8]; butachlor alone 4.48 kg/h)
50%: Percent Inhibition, Rice (rice [8]; butachlor alone 2.24 kg/h)
31%: Inhibition, Rice (rice [3]; butachlor alone 0.07 kg/h)
